Experimental data: US9006454B2, “Dihydroorotate dehydrogenase inhibitors” (Merck Serono S.A., priority 2009, dated 2015)

Tests used:
[1] = biological target: DHODH (Homo sapiens (Human), UniProt Q02127); experiment: DHODH activity assay (coupled enzyme assay, DCIP reduction, absorbance at 610 nm); type: biochemical; settings: for inhibition at 10 µM: compound at 10 uM, read-out: inh @ 10 uM hDHODH (%)
Protocol: The DHODH activity assay is a coupled enzyme assay in which oxidation of DHO and subsequent reduction of ubiquinone are stoichiometrically equivalent to the reduction of DCIP ([…]). The reduction of DCIP is accompanied by a loss of absorbance at 610 nm.
Buffer Preparation: 50 mM tris HCl, 150 mM KCl, and pH 8.0, 0.8% triton.
5 μL of Dimethyl sulfoxide or a compound of formula I in DMSO solution was added to the wells of a 96 well plate. Compounds of formula I were measured at 10 μM.
Protein along with buffer was added, so that the total volume including the DMSO was 87 μL. Compound and protein were incubated for half an hour at room temperature after mixing. 5 μL of 20 mM solution of L-Dihydroorotic acid, 5 μL of 2 mM solution of Decylubiquinone and 3 μL of 2 mM solution of 2,6-Dichloroindophenol sodium salt hydrate were added to the above solution (total assay volume 100 μL). The mixture was stirred for 2 min and absorbance was recorded at every 10 min at 610 nanometers.
Percent Inhibition is Calculated as Follows
Positive control contains DMSO, buffer, enzyme and substrates
No Enzyme reaction contains DMSO, buffer and substrates
IC50 determination: • A 2 mM DMSO stock of the compound of formula I to be examined was prepared. ⅓rd dilutions were made as follows:
5 μL of each stock of compound of formula I (solution indicated in column 4 of table) was used for each 100 μL assay. Therefore, 5 μL of the 2 mM stock provided 100 μL of 100 μM solution of compound of formula I, when made up with buffer, protein and substrate. See also: Ulrich et al. (2001) Eur. J. Biochem. 268, 1861-1868.

[2] = system: Jurkat cells; experiment: Measurement of cell proliferation (Jurkat cell), XTT assay; type: cell-based; settings: Homo sapiens, Jurkat; for inhibition at 1 µM: compound at 1 uM, read-out: % inh Jurkat_cells @ 1 uM (%); for EC50: 72 h, XTT cell viability
Protocol: See also Roehm, N et al [1991] An improved colorimetric assay for cell proliferation and viability utilizing the tetrazolium salt XTT. J. Immunol. Methods 142:257-265.
Culture Jurkat cells in T-25 flasks at a density of 0.2×10^6/ml 2-3 days before the day of experiment set up.
Centrifuge Jurkat T-cell suspension at 1200 rpm for 10 minutes and resuspend cells again in fresh RPMI medium with 10% FBS.
Count the cells and dilute suspension to a density of 2×10^6 cells/ml. Seed 50 μL of this suspension in each well of a 96 well plate (100,000 cells per well). Keep the edges of the plate empty to avoid evaporation.
Serially dilute DMSO stocks of compounds to get different concentrations for an EC50 curve. 50 μL of compound diluted in media (2× concentration required in well) is added to each well. DMSO concentration should be kept constant at 0.25-0.5% for all wells.
Typically, for all compounds with IC50<1 μM, compound concentration can start at 10 μM followed by half log dilutions for a total of 8-10 concentrations. Each concentration has to be tested in triplicate.
Include controls such as cells without compound (with same DMSO concentration as compound wells), and media control
Incubate the 96 well plate in a CO2 incubator at 37° C. for 72 hrs before determining cell viability using XTT assay
XTT assay: to each well, add 50 μL of 1 mg/ml XTT solution with 20 μl of PMS/mL. Read the plates after 2 hours at 465 nm using the spectrophotometer. XTT reading for media without cells is used as background reading.
Calculate % cell viability assuming that the cells without compound are 100% viable.
Plot % cell viability as a function of concentration and determine EC50 by using software such as Graph Pad Prism to fit the curve.

DHODH, sequence (Q02127 whole entry): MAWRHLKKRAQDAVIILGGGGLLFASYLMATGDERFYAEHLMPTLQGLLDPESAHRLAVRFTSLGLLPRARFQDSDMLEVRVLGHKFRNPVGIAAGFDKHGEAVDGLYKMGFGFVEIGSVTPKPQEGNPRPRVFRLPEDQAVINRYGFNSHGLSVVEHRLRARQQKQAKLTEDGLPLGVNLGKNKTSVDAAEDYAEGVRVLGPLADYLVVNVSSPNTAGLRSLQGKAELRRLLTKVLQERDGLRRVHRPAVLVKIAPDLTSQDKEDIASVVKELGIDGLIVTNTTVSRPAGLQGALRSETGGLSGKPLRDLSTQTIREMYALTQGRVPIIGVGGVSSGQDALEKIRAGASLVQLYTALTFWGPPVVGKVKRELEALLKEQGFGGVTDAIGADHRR

IC50 [1]	inhibition at 10 µM [1]	EC50 [2]	Structure (SMILES)	inhibition at 1 µM [2]
3.79 µM	65.2%	–	O=C(O)c1cccc2[nH]c(-c3ccc(-c4cccc(F)c4)cc3)nc12 [I17]	23.5%
0.975 µM	93.2%	1 µM	COc1cc(-c2nc3c(C(=O)O)cccc3[nH]2)cc(OC)c1-c1ccccc1 [I20]	67.1%
–	29.6%	–	O=C(O)c1cccc2nc(-c3ccc(-c4ccccn4)cc3)[nH]c12 [I73, 2-(4-Pyridin-2-yl-phenyl)-3H-benzoimidazole-4-carboxylic acid]	13.6%
–	58.5%	–	Cc1cc(C(=O)O)c2[nH]c(-c3ccc(Oc4ccc(C#N)cc4)cc3)nc2c1 [I78, 2-[4-(4-Cyano-phenoxy)-phenyl]-6-methyl-3H-benzoimidazole-4-carboxylic acid]	22.2%
–	75.6%	–	Cc1cc(C(=O)NC2CC2)c2[nH]c(-c3c(F)c(F)c(-c4ccccc4)c(F)c3F)nc2c1 [I163]	37.7%
0.5 µM	104%	–	O=C(O)c1cccc2nc(-c3c(F)c(F)c(-c4cccs4)c(F)c3F)[nH]c12 [I124]	80.1%
0.645 µM	94.2%	–	Cc1cc(C(=O)O)c2[nH]c(-c3ccc(-c4ccc(O)c(O)c4)cc3)nc2c1 [I91]	62.3%
–	23.3%	–	Cc1cc(C(=O)O)c2[nH]c(-c3cc4ccccc4[nH]3)nc2c1 [I40]	3.7%
1.26 µM	89%	–	O=C(O)c1cccc2[nH]c(-c3ccc(-c4cccc(OC(F)(F)F)c4)cc3)nc12 [I18]	43.1%
6.01 µM	58.7%	–	Cc1cc(C(=O)O)c2[nH]c(-c3ccc(-c4ccc(OCCC5CCNCC5)cc4)cc3)nc2c1 [I95]	14.3%
3.1 µM	71%	–	Cc1cc(C(=O)O)c2[nH]c(-c3ccc(-c4ccc(OCCO)cc4)cc3)nc2c1 [I99]	27.7%
–	31.9%	–	Cn1cc(-c2ccc(-c3nc4cccc(C(=O)O)c4[nH]3)cc2)cn1 [I186]	13.5%
–	43.3%	–	Cc1cc(C(=O)O)c2[nH]c(-c3ccc(-c4ccc(CN(C)C)cc4)cc3)nc2c1 [I161]	9.7%
0.003 µM	105%	0.041 µM	Cc1cc(C(=O)O)c2c(c1)nc(-c1c(F)c(F)c(-c3ccccc3)c(F)c1F)n2C [I123]	111%
–	49.1%	–	Cc1cc(C(=O)O)c2[nH]c(-c3ccc(-c4ccc(OCCN5CCCCC5)cc4)cc3)nc2c1 [I154]	8.7%
27.1 µM	33.2%	–	O=C(O)c1cccc2[nH]c(-c3ccc(Nc4ccccc4)cc3)nc12 [I55]	6.8%
–	51.8%	–	O=C(O)c1cccc2nc(-c3ccc(-c4ccc(OCCO)cc4)cc3)[nH]c12 [I157]	15.5%
–	40.4%	–	O=Cc1ccc(-c2ccc(-c3nc4c(C(=O)O)cccc4[nH]3)cc2)cc1 [I181]	9.4%
3.02 µM	74.1%	–	Cc1cc(C(=O)O)c2nc(-c3ccc(-c4ccc(OCCCN5CCOCC5)cc4)cc3)[nH]c2c1 [I87]	35.7%
1.73 µM	65%	–	Cc1cc(C(=O)O)c2nc(-c3ccc(-c4ccc(OCc5ccncc5)cc4)cc3)[nH]c2c1 [I114]	49%
–	53.3%	–	Cc1cc(C(=O)O)c2nc(-c3ccc(-c4ccc(Oc5ccc(C#N)cc5)cc4)cc3)[nH]c2c1 [I178]	37.6%
0.707 µM	82.2%	–	O=C(O)c1cccc2nc(-c3c(F)c(F)c(-c4ccccc4OCc4ccccc4)c(F)c3F)[nH]c12 [I101]	60.1%

IC50 [1]	inhibition at 10 µM [1]	EC50 [2]	Structure (SMILES)	inhibition at 1 µM [2]
0.048 µM	101%	–	Cc1cc(C(=O)O)c2nc(-c3c(F)c(F)c(-c4ccc(OCc5ccccc5)cc4)c(F)c3F)[nH]c2c1 [I127]	96%
–	45%	–	COC(=O)c1cc(C)cc2[nH]c(-c3c(F)c(F)c(-c4ccccc4)c(F)c3F)nc12 [I176]	7%
0.032 µM	92.5%	2.6 µM	Cc1cc(C(=O)O)c2nc(-c3c(F)c(F)c(-c4cccnc4)c(F)c3F)[nH]c2c1 [I141]	86.9%
0.00886 µM	97%	–	Cc1cc(C(=O)O)c2[nH]c(-c3c(F)c(F)c(-c4cccc(F)c4)c(F)c3F)nc2c1 [I126]	94%
0.403 µM	96.3%	0.206 µM	Cc1cc(C(=O)O)c2[nH]c(-c3ccc(-c4ccccc4)cc3F)nc2c1 [I28]	75.4%
7.07 µM	59.8%	–	Cc1cc(C(=O)O)c2nc(-c3ccc(-c4ccccc4)cn3)[nH]c2c1 [I53]	22.7%
–	86%	–	Cc1cc(C(=O)O)c2nc(-c3ccc(-c4ccc(Oc5ccccn5)cc4)cc3)[nH]c2c1 [I171]	35%
0.49 µM	96.4%	–	O=C(O)c1cccc2[nH]c(-c3ccc(-c4ccccc4F)cc3)nc12 [I15]	64.4%
–	64.7%	–	O=C(O)c1cccc2[nH]c(-c3ccc(-c4ccccc4)nc3)nc12 [I50]	21%
–	5.3%	–	O=C(O)c1cccc2nc(-c3ccc(-n4ccccc4=O)cc3)[nH]c12 [I63]	1.4%
–	32.4%	–	Cc1cc(C(=O)O)c2nc(-c3cc(-c4ccccc4)cs3)[nH]c2c1 [I49]	11%
0.0282 µM	97%	–	O=C(O)c1cccc2nc(-c3c(F)c(F)c(-c4cccc(F)c4)c(F)c3F)[nH]c12 [I125]	92%
1.2 µM	88%	–	Cc1cc(C(=O)O)c2nc(-c3ccc(-c4cccc(OCc5ccccc5)c4)cc3)[nH]c2c1 [I115]	52%
0.815 µM	93.1%	–	Cc1cc(C(=O)O)c2nc(-c3c(F)c(F)c(-c4cccc(NC(=O)C5CCCN5)c4)c(F)c3F)[nH]c2c1 (centres unmarked) [I86]	70.8%
–	59.4%	–	Cc1ccc(C)n1-c1ccc(-c2nc3cccc(C(=O)O)c3[nH]2)cc1 [I185]	21.5%
–	58.6%	–	O=C(O)c1cccc2[nH]c(-c3ccc(Oc4ccccn4)cc3)nc12 [I70, 2-[4-(Pyridin-2-yloxy)-phenyl]-1H-benzoimidazole-4-carboxylic acid]	14.6%
–	68.1%	–	O=C(O)c1cccc2nc(-c3ccc(-c4ccc(F)cc4F)cc3F)[nH]c12 [I30]	31.5%
0.922 µM	86.2%	–	O=C(O)c1cccc2nc(-c3ccc(-c4ccccc4)cc3F)[nH]c12 [I27]	57.1%
1.5 µM	91%	–	Cc1cc(C(=O)O)c2[nH]c(-c3ccc(-c4ccccc4OCc4ccccc4)cc3)nc2c1 [I106]	48%
–	12.5%	–	CC(=O)c1cccc2[nH]c(-c3ccc(-c4ccccc4)cc3)nc12 [I69, 1-(2-Biphenyl-4-yl-1H-benzoimidazol-4-yl)-ethanone]	9.2%
3.69 µM	78.8%	–	Cc1cc(C(=O)O)c2nc(-c3ccc(-c4ccc(NC(=O)C5CCNCC5)cc4)cc3)[nH]c2c1 [I90]	44.5%
–	67.9%	–	Cc1cc(C(=O)O)c2nc(-c3ccc(-c4ccc(OCCN5CCCC5)cc4)cc3)[nH]c2c1 [I151]	16%
